Data published in the supplement of paper PMC10307832.

Assays:
Assay in all cases: relative viability (nuclei count vs DMSO), 5 days (fraction); higher = more cells survive
[1] = compound: CCn1c(-c2nonc2N)nc2cnc(Oc3cccc(NC(=O)c4ccc(OCCN5CCOCC5)cc4)c3)cc21 + Nc1nc2[nH]cc(CCc3ccc(C(=O)N[C@@H](CCC(=O)O)C(=O)O)cc3)c2c(=O)[nH]1 [Pemetrexed] (partner 0.2 µM)
Outline: (§1)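 Lung cancer cell lines in 1536-well plates got either a single drug or a fixed anchor-drug dose together with five library-drug doses (not always all listed) in √10 steps, by pin tool, on the day after seeding. Nuclei were counted after 5 days, and relative viability is the treated-to-vehicle ratio of nuclei counts. Values are medians of duplicate plates.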

[2] = compound: N=C1NC(=O)/C(=C/c2ccc(O)cc2)S1 [Mirin] + CC(C)C[C@H](NC(=O)[C@H](Cc1ccccc1)NC(=O)c1cnccn1)B(O)O [Bortezomib] (partner 0.002 µM)
Outline: as §1

[3] = compound: N=C1NC(=O)/C(=C/c2ccc(O)cc2)S1 [Mirin] + CS(=O)(=O)CCNCc1ccc(-c2ccc3ncnc(Nc4ccc(OCc5cccc(F)c5)c(Cl)c4)c3c2)o1 [Lapatinib] (partner 2 µM)
Outline: as §1

[4] = compound: N=C1NC(=O)/C(=C/c2ccc(O)cc2)S1 [Mirin] + Cc1cc(Nc2cc(N3CCN(C)CC3)nc(Sc3ccc(NC(=O)C4CC4)cc3)n2)n[nH]1 [Tozasertib] (partner 0.1 µM)
Outline: as §1

Cell Line	relative viability ([1]; first compound 0.04 µM)	relative viability ([1]; first compound 0.1265 µM)	relative viability ([1]; first compound 0.4 µM)	relative viability ([1]; first compound 1.265 µM)	relative viability ([1]; first compound 4 µM)	relative viability ([2]; first compound 0.25 µM)	relative viability ([2]; first compound 0.7906 µM)	relative viability ([2]; first compound 2.5 µM)	relative viability ([2]; first compound 7.906 µM)	relative viability ([2]; first compound 25 µM)	relative viability ([3]; first compound 0.25 µM)	relative viability ([3]; first compound 0.7906 µM)	relative viability ([3]; first compound 2.5 µM)	relative viability ([3]; first compound 7.906 µM)	relative viability ([3]; first compound 25 µM)	relative viability ([4]; first compound 0.25 µM)	relative viability ([4]; first compound 0.7906 µM)	relative viability ([4]; first compound 2.5 µM)	relative viability ([4]; first compound 7.906 µM)	relative viability ([4]; first compound 25 µM)
NCI-H1975	0.29	0.269	0.23	0.188	0.178	0.375	0.366	0.468	0.498	0.321	1.12	0.785	0.883	1.02	0.757	0.697	0.84	0.799	0.664	0.585
SK-LU-1	0.918	0.906	0.772	0.457	0.372	1.22	1.22	1.19	–	1.15	0.974	0.88	0.792	0.788	0.541	0.332	0.325	0.346	0.213	0.209
NCI-H460	0.0568	0.0572	0.0592	0.0521	0.0564	1.22	1.2	1.21	1.12	1.15	1.05	1.01	1.06	0.836	0.631	0.386	0.393	0.402	0.229	0.221
HCC-78	0.959	0.847	–	0.929	0.951	0.449	1.03	0.524	0.397	0.424	0.921	0.761	0.837	0.774	0.552	0.409	0.492	0.386	0.337	0.33
NCI-H1915	0.497	0.494	0.448	0.183	0.174	1.03	–	1.01	0.931	0.945	0.95	–	0.997	0.853	0.826	0.44	–	0.413	0.35	0.289
